How the values were obtained:
[1] = molecular target: PD-1/PD-L1 (Homo sapiens, UniProt Q9NZQ7); experiment: PD-1/PD-L1 biochemical protein-protein interaction assay (ALPHA); type: binding; details: 0.3 nM His tagged PD-L1, 2.5 nM biotinylated Fc-PD-1, 60 minutes at 25° C., read-out: IC50 PD-L1-PD-1 Alpha IC50-mono PD-L1-fcP-D1
Outline: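 Extracellular-domain binding of His-tagged PD-L1 (0.3 nM final) to biotinylated Fc-PD-1 (2.5 nM final) was measured by ALPHA in 25 mM Hepes pH 7.4, 150 mM NaCl, 3.4 mM EDTA, 0.005% Tween 20, 0.01% BSA. After 60 min at 25° C, anti-His acceptor and streptavidin donor beads were added; IC50 from four-parameter fits.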

[2] = molecular target: T1, PD-1/PD-L1 interaction (Homo sapiens, UniProt Q9NZQ7); experiment: PD-1/PD-L1 NFAT reporter co-culture assay; type: cell-based; details: Jurkat PD-1 NFAT-luciferase cells co-cultured with aAPC-PD-L1 CHO cells, 6 hrs at 37° C.; read-out: EC50 NFAT Luciferase
T1 construct: expressed in transfected cells; host or cells: CHO cells (aAPC-PD-L1) co-cultured with Jurkat cells overexpressing PD-1 and an NFAT-luciferase reporter
T1 sequence (Q9NZQ7 19-290): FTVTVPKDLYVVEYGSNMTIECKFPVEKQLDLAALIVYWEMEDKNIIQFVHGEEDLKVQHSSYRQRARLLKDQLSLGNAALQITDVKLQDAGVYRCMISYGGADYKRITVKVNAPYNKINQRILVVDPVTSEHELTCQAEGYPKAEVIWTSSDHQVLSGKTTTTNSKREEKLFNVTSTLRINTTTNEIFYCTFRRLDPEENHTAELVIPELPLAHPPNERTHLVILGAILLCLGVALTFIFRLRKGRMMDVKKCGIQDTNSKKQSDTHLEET
Outline: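 Restoration of TCR-driven NFAT luciferase signal: 6 h, 37 °C co-culture of PD-1 Jurkat reporter cells (pre-mixed with compound) on overnight-seeded PD-L1/anti-CD3 CHO monolayer. ONE-Glo luminescence; dose-response fitted to four-parameter equation for EC50.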

[3] = molecular target: T2, PD-L1 (Homo sapiens, UniProt Q9NZQ7); experiment: PD-L1/PD-L1 dimerization biochemical protein-protein interaction assay (ALPHA); type: binding; details: compound-induced PD-L1 dimerization, head prints '1 nM' (0.5 nM His-tagged PD-L1 and 0.5 nM FLAG-tagged PD-L1), read-out: AC50 PDL1 Dimer Alpha 1 nM
T2 construct: determine if they can specifically dimerize the extracellular domains of PD-L1
T2 sequence (Q9NZQ7 19-238 limits assumed): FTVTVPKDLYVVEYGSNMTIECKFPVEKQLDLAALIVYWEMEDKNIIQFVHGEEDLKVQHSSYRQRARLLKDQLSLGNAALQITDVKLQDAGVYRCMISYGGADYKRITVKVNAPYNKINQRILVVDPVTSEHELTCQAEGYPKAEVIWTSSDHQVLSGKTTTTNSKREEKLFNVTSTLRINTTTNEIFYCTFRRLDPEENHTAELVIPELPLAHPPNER
T2 sequence (Q9NZQ7 19-238 limits assumed): as above
Outline: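 ALPHA proximity assay of compound-induced dimerization of 0.5 nM His-tagged and 0.5 nM FLAG-tagged PD-L1 extracellular domains in Hepes pH 7.4 buffer, 2 h at 25 °C. Anti-His acceptor then anti-FLAG donor beads, 60 min each; AC50 from four-parameter fit.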

PD-1/PD-L1, sequence (Q9NZQ7 19-238 limits assumed): as above

Compound | IC50 [1] | EC50 [2] | AC50 [3]
Cc1c(COc2cc(OCc3cncc(C#N)c3)c(CN3CC[C@@H](O)C3)cc2Cl)cccc1-c1cccc(-c2ccc(CNC[C@@H](O)CC(=O)O)cc2)c1C [Example 308, (S)-4-(((3″-((2-chloro-5-((5-cyanopyridin-3-yl)methoxy)-4-(((R)-3-hydroxypyrrolidin-1-yl)methyl)phenoxy)methyl)-2′,2″-dimethyl-[1,1′:3′,1″-terphenyl]-4-yl)methyl)amino)-3-hydroxybutanoic acid] | 0.346 nM | 373 nM | 203 nM
Cc1c(COc2cc(OCc3cncc(C#N)c3)c(CN3CC[C@@H](O)C3)cc2Cl)cccc1-c1cccc(-c2ccc(OCCNC[C@@H](O)CC(=O)O)cc2)c1C [Example 309, (S)-4-((2-((3″-((2-chloro-5-((5-cyanopyridin-3-yl)methoxy)-4-(((R)-3-hydroxypyrrolidin-1-yl)methyl)phenoxy)methyl)-2′,2″-dimethyl-[1,1′:3′,1″-terphenyl]-4-yl)oxy)ethyl)amino)-3-hydroxybutanoic acid] | 0.168 nM | 240 nM | 103 nM
Cc1c(COc2cc(OCc3cncc(C#N)c3)c(CN[C@](C)(CO)C(=O)O)cc2Cl)cccc1-c1cccc(-c2ccc(OCCNCCO)c(S(C)(=O)=O)c2)c1C [Example 310, (R)-2-((5-chloro-2-((5-cyanopyridin-3-yl)methoxy)-4-((4″-(2-((2-hydroxyethyl)amino)ethoxy)-2,2′-dimethyl-3″-(methylsulfonyl)-[1,1′:3′,1″-terphenyl]-3-yl)methoxy)benzyl)amino)-3-hydroxy-2-methylpropanoic acid] | 0.069 nM | 215 nM | 121 nM
Cc1c(COc2cc(OCc3cncc(C#N)c3)c(CNC[C@@H](O)CC(=O)O)cc2Cl)cccc1-c1cccc(-c2ccc(OCCNC[C@@H](O)CC(=O)O)c(C(N)=O)c2)c1C [Example 312, (S)-4-((2-((3-carbamoyl-3″-((4-((((S)-3-carboxy-2-hydroxypropyl)amino)methyl)-2-chloro-5-((5-cyanopyridin-3-yl)methoxy)phenoxy)methyl)-2′,2″-dimethyl-[1,1′:3′,1″-terphenyl]-4-yl)oxy)ethyl)amino)-3-hydroxybutanoic acid] | 0.051 nM | 97 nM | 144 nM
Cc1c(COc2cc(OCc3cncc(C#N)c3)c(CN[C@@](C)(CO)C(=O)O)cc2Cl)cccc1-c1cccc(-c2ccc(OCCN[C@@](C)(CO)C(=O)O)cc2)c1C [Example 313, (S)-2-((4-((4″-(2-(((S)-2-carboxy-1-hydroxypropan-2-yl)amino)ethoxy)-2,2′-dimethyl-[1,1′:3′,1″-terphenyl]-3-yl)methoxy)-5-chloro-2-((5-cyanopyridin-3-yl)methoxy)benzyl)amino)-3-hydroxy-2-methylpropanoic acid] | 0.051 nM | 152 nM | 91.3 nM

Results, then the compound that gave them:

IC50 [1] | EC50 [2] | AC50 [3] | Compound
0.536 nM | 702 nM | 599 nM | COc1nc(-c2cccc(-c3cccc(COc4cc(OCc5cncc(C#N)c5)c(CN5CC[C@@H](O)C5)cc4Cl)c3C)c2C)ccc1CNC[C@@H](O)CC(=O)O [Example 307, (S)-4-(((6-(3′-((2-chloro-5-((5-cyanopyridin-3-yl)methoxy)-4-(((R)-3-hydroxypyrrolidin-1-yl)methyl)phenoxy)methyl)-2,2′-dimethyl-[1,1′-biphenyl]-3-yl)-2-methoxypyridin-3-yl)methyl)amino)-3-hydroxybutanoic acid]
0.064 nM | 104 nM | 75.5 nM | Cc1c(COc2cc(OCc3cncc(C#N)c3)c(CN[C@@](C)(CO)C(=O)O)cc2Cl)cccc1-c1cccc(-c2ccc(OCCNCCO)cc2)c1C [Example 311, (S)-2-((5-chloro-2-((5-cyanopyridin-3-yl)methoxy)-4-((4″-(2-((2-hydroxyethyl)amino)ethoxy)-2, 2′-dimethyl-[1, 1′:3′,1″-terphenyl]-3-yl)methoxy)benzyl)amino)-3-hydroxy-2-methylpropanoic acid]
